Measured values from paper PMC11062922 (Nature Chemical Biology, 2023).

Legend:
ABL2 = target: T1, ABL2 (Homo sapiens, UniProt P42684); experiment: Kinobeads competition binding: ABL2; settings: target ABL2
T1 construct: endogenous in cells

ACOX3 = experiment: Kinobeads competition binding: ACOX3; design: species or system human; settings: target ACOX3;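 note: share of all-target engagement taken by this protein at its own Kdapp concentration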
ADK = experiment: Kinobeads competition binding: ADK; design: species or system human; settings: target ADK;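 note: selectivity score: engagement of this protein divided by summed engagement of all targets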
CAMK2B = target: T2, CAMK2B (Homo sapiens, UniProt Q13554); experiment: Kinobeads competition binding: CAMK2B; settings: target CAMK2B
T2 construct: endogenous in cells
T2 sequence (Q13554 whole entry): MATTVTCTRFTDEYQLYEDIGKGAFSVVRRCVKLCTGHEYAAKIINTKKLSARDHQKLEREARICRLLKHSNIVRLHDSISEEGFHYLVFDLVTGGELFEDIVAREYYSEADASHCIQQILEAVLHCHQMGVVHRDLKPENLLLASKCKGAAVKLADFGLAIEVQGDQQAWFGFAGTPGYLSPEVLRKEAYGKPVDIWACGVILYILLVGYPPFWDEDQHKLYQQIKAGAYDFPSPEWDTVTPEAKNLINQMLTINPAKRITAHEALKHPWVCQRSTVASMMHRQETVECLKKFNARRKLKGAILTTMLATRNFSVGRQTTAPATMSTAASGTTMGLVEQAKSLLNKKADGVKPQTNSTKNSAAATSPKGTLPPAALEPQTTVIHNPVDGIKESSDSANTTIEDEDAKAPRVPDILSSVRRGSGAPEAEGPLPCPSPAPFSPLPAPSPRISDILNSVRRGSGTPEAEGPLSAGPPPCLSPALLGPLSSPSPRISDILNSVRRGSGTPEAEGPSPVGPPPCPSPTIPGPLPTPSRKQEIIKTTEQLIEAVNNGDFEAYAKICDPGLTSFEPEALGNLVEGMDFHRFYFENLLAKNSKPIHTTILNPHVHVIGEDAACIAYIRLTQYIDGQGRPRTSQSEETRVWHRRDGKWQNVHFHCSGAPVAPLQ
Description: Supplement 41589_2023_1459_MOESM4_ESM.xlsx, sheet "CATDS matrix" | column: CAMK2B

CDC42BPA = experiment: Kinobeads competition binding: CDC42BPA; design: species or system human; settings: target CDC42BPA;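 note: selectivity score: engagement of this protein divided by summed engagement of all targets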
CDKL5 = target: T3, CDKL5 (Homo sapiens, UniProt O76039); experiment: Kinobeads competition binding: CDKL5; settings: target CDKL5
T3 construct: endogenous in cells
T3 sequence (O76039 1-960): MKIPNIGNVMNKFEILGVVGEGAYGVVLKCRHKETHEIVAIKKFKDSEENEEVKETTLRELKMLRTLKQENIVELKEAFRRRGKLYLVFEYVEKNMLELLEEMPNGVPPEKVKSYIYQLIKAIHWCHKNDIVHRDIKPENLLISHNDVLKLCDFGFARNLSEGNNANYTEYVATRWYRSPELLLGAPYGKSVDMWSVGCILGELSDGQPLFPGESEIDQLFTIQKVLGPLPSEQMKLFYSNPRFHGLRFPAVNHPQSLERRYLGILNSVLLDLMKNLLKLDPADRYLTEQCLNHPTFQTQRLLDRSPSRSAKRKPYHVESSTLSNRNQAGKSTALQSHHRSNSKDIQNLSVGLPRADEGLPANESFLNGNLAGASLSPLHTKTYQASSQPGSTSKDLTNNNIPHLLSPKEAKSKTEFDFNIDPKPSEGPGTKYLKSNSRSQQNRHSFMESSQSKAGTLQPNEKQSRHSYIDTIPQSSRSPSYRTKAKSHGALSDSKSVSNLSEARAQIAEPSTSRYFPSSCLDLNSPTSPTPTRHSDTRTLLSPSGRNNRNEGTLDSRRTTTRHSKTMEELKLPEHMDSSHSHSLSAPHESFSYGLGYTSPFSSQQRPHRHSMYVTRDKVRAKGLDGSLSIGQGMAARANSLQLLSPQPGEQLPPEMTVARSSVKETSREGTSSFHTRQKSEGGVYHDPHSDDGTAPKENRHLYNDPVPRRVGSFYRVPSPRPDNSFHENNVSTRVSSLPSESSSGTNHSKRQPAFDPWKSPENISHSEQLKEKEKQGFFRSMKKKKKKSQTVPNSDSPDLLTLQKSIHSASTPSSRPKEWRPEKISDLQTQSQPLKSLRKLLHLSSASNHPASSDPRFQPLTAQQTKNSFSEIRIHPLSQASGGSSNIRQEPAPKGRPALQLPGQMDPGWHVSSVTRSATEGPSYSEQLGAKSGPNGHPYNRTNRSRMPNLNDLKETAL
Description: Supplement 41589_2023_1459_MOESM4_ESM.xlsx, sheet "CATDS matrix" | column: CDKL5

CLK1 = target: T4, CLK1 (Homo sapiens, UniProt P49759); experiment: Kinobeads competition binding: CLK1; settings: target CLK1
T4 construct: endogenous in cells
T4 sequence (P49759 whole entry): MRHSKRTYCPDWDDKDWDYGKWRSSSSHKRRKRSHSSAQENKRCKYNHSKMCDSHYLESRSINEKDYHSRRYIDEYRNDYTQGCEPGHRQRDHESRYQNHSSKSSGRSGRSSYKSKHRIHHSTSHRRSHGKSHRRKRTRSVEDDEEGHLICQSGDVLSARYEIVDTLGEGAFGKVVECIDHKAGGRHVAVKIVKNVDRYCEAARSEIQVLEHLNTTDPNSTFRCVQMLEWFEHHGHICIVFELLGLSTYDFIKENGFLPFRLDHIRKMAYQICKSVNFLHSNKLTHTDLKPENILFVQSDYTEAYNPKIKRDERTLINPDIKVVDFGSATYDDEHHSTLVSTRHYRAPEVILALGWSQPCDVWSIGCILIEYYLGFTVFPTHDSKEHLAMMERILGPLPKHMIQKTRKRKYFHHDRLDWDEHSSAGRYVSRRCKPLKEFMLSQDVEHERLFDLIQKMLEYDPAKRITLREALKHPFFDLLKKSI

COX5A = experiment: Kinobeads competition binding: COX5A; design: species or system human; settings: target COX5A;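 note: share of total target engagement due to this protein at one drug concentration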
EPHA1 = target: T5, EPHA1 (Homo sapiens, UniProt P21709); experiment: Kinobeads competition binding: EPHA1; settings: target EPHA1
T5 construct: endogenous in cells
T5 sequence (P21709 26-976): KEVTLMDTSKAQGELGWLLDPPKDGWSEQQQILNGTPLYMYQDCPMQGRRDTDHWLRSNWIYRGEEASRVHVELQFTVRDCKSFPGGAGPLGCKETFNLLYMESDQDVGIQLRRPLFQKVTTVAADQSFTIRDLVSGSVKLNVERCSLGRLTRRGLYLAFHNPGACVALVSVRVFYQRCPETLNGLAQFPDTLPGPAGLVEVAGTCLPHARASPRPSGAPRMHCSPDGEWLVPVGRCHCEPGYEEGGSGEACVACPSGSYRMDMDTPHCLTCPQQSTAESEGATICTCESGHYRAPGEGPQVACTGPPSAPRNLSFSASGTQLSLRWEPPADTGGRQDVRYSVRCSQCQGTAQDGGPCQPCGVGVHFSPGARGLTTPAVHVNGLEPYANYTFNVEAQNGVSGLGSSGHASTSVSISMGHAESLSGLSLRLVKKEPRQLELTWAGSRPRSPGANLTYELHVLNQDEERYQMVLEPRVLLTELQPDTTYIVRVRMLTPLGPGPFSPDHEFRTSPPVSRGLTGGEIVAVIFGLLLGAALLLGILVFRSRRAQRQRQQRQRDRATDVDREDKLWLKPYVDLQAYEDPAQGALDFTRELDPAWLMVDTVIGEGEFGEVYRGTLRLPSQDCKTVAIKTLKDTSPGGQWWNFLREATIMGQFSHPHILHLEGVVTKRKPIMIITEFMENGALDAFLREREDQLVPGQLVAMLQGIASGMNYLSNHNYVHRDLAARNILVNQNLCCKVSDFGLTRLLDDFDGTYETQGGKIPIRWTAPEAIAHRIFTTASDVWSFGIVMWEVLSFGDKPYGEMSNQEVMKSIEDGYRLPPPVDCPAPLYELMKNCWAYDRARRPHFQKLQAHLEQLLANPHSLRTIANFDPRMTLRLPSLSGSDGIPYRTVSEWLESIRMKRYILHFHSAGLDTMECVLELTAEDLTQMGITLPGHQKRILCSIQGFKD
Description: Supplement 41589_2023_1459_MOESM4_ESM.xlsx, sheet "CATDS matrix" | column: EPHA1

FYN = target: T6, FYN (Homo sapiens, UniProt P06241); experiment: Kinobeads competition binding: FYN; settings: target FYN;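 note: share of total target engagement due to this protein at one drug concentration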
T6 construct: endogenous in cells
T6 sequence (P06241 whole entry): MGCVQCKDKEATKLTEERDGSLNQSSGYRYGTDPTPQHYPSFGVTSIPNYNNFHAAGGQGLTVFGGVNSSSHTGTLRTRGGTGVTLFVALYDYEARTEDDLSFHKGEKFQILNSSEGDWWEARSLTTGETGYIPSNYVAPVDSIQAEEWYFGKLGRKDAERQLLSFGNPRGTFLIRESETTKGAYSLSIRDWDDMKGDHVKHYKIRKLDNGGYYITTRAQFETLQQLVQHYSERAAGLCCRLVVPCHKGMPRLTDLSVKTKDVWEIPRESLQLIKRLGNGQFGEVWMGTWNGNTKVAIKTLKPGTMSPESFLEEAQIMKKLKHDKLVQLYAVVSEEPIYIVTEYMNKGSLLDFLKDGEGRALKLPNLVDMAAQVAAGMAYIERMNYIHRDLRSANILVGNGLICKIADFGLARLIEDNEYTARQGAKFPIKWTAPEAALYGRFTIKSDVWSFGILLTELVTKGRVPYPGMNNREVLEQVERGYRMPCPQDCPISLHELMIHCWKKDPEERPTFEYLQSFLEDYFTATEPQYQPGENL
Description: Supplement 41589_2023_1459_MOESM4_ESM.xlsx, sheet "CATDS matrix" | column: FYN

INSR = experiment: Kinobeads competition binding: INSR; design: species or system human; settings: target INSR;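 note: share of total target engagement due to this protein at one drug concentration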
LCK = experiment: Kinobeads competition binding: LCK; design: species or system human; settings: target LCK
MAP3K4 = experiment: Kinobeads competition binding: MAP3K4; design: species or system human; settings: target MAP3K4;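 note: target engagement share of this target among all targets at its Kdapp concentration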
MAP4K5 = experiment: Kinobeads competition binding: MAP4K5; design: species or system human; settings: target MAP4K5
NQO2 = experiment: Kinobeads competition binding: NQO2; design: species or system human; settings: target NQO2
PIK3C2B = experiment: Kinobeads competition binding: PIK3C2B; design: species or system human; settings: target PIK3C2B

T1 sequence (P42684 whole entry): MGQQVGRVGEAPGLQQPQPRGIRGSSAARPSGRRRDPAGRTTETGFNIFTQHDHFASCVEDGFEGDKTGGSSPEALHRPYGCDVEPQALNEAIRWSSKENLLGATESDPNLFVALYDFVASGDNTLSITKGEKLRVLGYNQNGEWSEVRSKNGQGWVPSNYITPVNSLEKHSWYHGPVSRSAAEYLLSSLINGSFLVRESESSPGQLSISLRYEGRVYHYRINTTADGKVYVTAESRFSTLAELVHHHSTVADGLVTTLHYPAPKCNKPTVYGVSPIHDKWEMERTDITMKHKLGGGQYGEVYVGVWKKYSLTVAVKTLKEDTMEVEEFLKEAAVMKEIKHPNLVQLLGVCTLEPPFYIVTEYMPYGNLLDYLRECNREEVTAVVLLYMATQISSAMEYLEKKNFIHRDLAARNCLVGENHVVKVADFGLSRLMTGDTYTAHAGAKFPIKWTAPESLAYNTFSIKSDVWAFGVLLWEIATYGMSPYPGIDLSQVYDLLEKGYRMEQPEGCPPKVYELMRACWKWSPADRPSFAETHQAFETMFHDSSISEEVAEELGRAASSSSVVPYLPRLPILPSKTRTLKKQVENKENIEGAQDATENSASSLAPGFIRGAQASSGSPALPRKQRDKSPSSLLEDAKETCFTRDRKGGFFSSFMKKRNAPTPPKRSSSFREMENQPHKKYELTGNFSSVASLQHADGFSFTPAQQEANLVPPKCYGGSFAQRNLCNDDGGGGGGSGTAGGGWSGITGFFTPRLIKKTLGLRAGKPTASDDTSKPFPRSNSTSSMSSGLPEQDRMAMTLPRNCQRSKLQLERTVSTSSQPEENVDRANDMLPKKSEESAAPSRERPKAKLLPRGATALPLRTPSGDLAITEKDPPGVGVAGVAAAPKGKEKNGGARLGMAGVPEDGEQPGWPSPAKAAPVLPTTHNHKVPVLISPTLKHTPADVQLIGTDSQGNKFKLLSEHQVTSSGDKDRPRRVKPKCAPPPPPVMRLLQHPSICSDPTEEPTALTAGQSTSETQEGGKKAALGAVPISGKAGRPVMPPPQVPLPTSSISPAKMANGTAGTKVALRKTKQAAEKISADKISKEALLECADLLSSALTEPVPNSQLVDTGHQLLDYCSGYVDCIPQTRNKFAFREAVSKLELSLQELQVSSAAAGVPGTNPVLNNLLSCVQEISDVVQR

| SMILES | CATDS (ABL2) | CATDS (ACOX3) | CATDS (ADK) | CATDS (CAMK2B) | CATDS (CDC42BPA) | CATDS (CDKL5) | CATDS (CLK1) | CATDS (COX5A) | CATDS (EPHA1) | CATDS (FYN) | CATDS (INSR) | CATDS (LCK) | CATDS (MAP3K4) | CATDS (MAP4K5) | CATDS (NQO2) | CATDS (PIK3C2B) |
| --- | --- | --- | --- | --- | --- | --- | --- | --- | --- | --- | --- | --- | --- | --- | --- | --- |
| CCc1cc2c(cc1N1CCC(N3CCOCC3)CC1)C(C)(C)c1[nH]c3cc(C#N)ccc3c1C2=O [Alectinib] | 0 | 0 | 0 | 0 | 0 | 0 | 0 | 0 | 0 | 0 | 0 | 0 | 0 | 0 | 0 | 0 |
| CN(C)C/C=C/C(=O)Nc1cc2c(Nc3ccc(F)c(Cl)c3)ncnc2cc1O[C@H]1CCOC1 [Afatinib] | – | 0 | 0 | 0 | – | 0 | – | 0 | 0 | 0 | – | – | – | – | 0 | – |
| Nc1ncnc2[nH]c(-c3ccccc3)nc12 [AH5015_KCGS] | 0 | 0 | 0 | 0 | 0 | 0 | 0 | 0 | 0 | 0 | 0 | 0 | 0 | 0 | 0 | 0 |
| CCN1CCN(Cc2ccc(Nc3ncc(F)c(-c4cc(F)c5nc(C)n(C(C)C)c5c4)n3)nc2)CC1 [Abemaciclib] | 0 | 0 | 0 | 0.1515 | 0 | 0.6907 | – | 0 | 0 | 0 | 0 | 0 | 0 | 0 | 0 | 0 |
| N#CC1(c2ccc(NC(=O)c3cccnc3NCc3ccncc3)cc2)CCCC1 [Apatinib] | 0 | 0 | 0 | 0 | 0 | 0 | 0 | 0 | 0 | 0 | 0 | 0 | 0 | 0 | 0 | 0 |
